Results reported in PMC9863716, “The Sequence Characteristics and Binding Properties of the Odorant-Binding Protein 2 of Euplatypus parallelus to Semiochemicals” (International Journal of Molecular Sciences, 2023).

Legend:
rubber bark beetles = system: rubber bark beetles; parameters: method as in ref 16, 17 = [16]; 16. Shore T. McLean J. Attraction of Platypus wilsoni Swaine (Coleoptera: Platipodidae) to traps baited with sulcatol, ethanol and alpha-pinene Can. For. Serv. Res. Notes 1983 3 24 25 || [17]; 17. Chen Q. Liang X. Wu C. Chen Q. Zhang Z. Trapping effects of 12 aggregation pheromones on rubber bark beetles Chin. J. Trop. Crops 2019 40 2432 2439; settings: trapping experiments; cited from earlier work
EparOBP2 [1] = test: Fluorescence competitive binding assay (displacement of 1-NPN); parameters: species or system Euplatypus parallelus; settings: 2 μM protein, 50 mM Tris-HCl pH 7.4; for Ki: Ki = IC50/(1 + [1-NPN]/K1-NPN); for IC50: ligand concentration displacing 50% of 1-NPN
Protocol: (§1) Nine semiochemicals related to the life activities of E. parallelus were used as candidate ligands. The binding capacities of EpraOBP2 were evaluated using an F-7000 fluorescence spectrometer (Hitachi, Tokyo, Japan). The fluorescent reporter N-phenyl-1-naphthylamine (1-NPN) was dissolved in chromatographic methanol at a concentration of 1 mM. The purified EparOBP2 was dissolved in 50 mM Tris-HCl (pH 7.4) at a final concentration of 2 μM. The fluorescence spectra were scanned between 360 and 650 nm. […] Prism 8 (GraphPad Software, San Diego, CA, USA) was used to calculate the dissociation constant of 1-NPN (K1-NPN).
To calculate the binding ability of EparOBP2 with semiochemicals, different odor compounds were used to replace the 1-NPN from the EparOBP2/1-NPN complex. The odor ligands were dissolved in chromatographic methanol at a concentration of 1 mM and added as aliquots to the protein solution. The spectral results were obtained, and the dissociation constants of the competitors were calculated with the formula Ki = IC50/(1 + [1-NPN]/K1-NPN), where 1-NPN represents the free concentration of 1-NPN, while IC50 represents the ligand concentration displacing 50% of the fluorescent reporter.

E. parallelus = system: E. parallelus; parameters: method as in ref 7, 15 = [7]; 7. Zhou X. Guo J. Yin T. Gan W. Bai C. Xu F. Yang S. Research progress on rubber bark beetles and trapping control technology in China Chin. J. Trop. Crops 2021 42 3049 3054 || [15]; 15. Xu F. Research of Volatile Compounds of Rubber Tree and Its Behavioral Activities on Two Species of Bark Beetles Hainan University Haikou, China 2019 20 24; settings: cited from earlier work
EparOBP2 [2] = test: Titration of EparOBP2 with fluorescent probe 1-NPN (saturation and Scatchard plot); type: binding, Euplatypus parallelus; settings: 2 μM protein titrated with 2 to 20 μM 1-NPN, pH 7.4; read-out: K1-NPN (dissociation constant of 1-NPN)
Protocol: as §1

SMILES | attraction effects on rubber bark beetles (rubber bark beetles) | Ki (EparOBP2 [1]) [µM] | IC50 (EparOBP2 [1]) [µM] | attraction effect on E. parallelus (E. parallelus) | Kd (EparOBP2 [2]) [µM]
C=CC(=C)CCC=C(C)C [Myrcene] | attraction effects | 7.49 | 8.99 | – | –
C=C1[C@H]2CC[C@@H]3[C@H]2C(C)(C)CCC[C@]13C [(+)-Longifolene] | – | 41.3 | 49.6 | attraction effect | –
CC1=CCC2CC1C2(C)C (stereo not drawn) [α-Pinene] | attraction effects | 15.9 | 19.1 | – | –
C=C1C2CCC(C2)C1(C)C (stereo not shown) [Camphene] | attraction effects | 27.4 | 32.9 | – | –
CC(C)(O)c1ccccc1 [2-Phenyl-2-propanol] | – | 23.3 | 27.9 | attraction effect | –
C=CC(C)(C)O [2-Methyl-3-buten-2-ol] | attraction effects | 31.6 | 37.9 | – | –
CCCCCCCCCCCCCC [Tetradecane] | – | 26 | 31.2 | attraction effect | –
c1ccc(Nc2cccc3ccccc23)cc1 [1-NPN, N-phenyl-1-naphthylamine] | – | – | – | – | 4.98
CC1=C[C@H](O)[C@H]2C[C@@H]1C2(C)C [S-(-)-cis-Verbenol] | attraction effects | 19.3 | 23.2 | – | –
C=C(C)[C@@H]1CC=C(C)CC1 [(S)-(-)-Limonene] | attraction effects | 33.7 | 40.4 | – | –
